Read-outs that look alike come from different tables or passages of the source.
Legend:
[1] = Chemical stability in acidic and alkaline environments (TLC-monitored); format: physicochemical; conditions: TLC at 10 min, 1, 2, 3, 24, 48 h; for chemical stability in the acidic environment: 2 mg/mL in methanol + 10% HCl 1:1; for chemical stability in the alkaline environment: 2 mg/mL in methanol + 10% NaOH 1:1
Description: The chemical stability of the new organic selenocompounds was evaluated in two different environments (acidic and alkaline). Firstly, tested selenocompounds were dissolved in pure anhydrous methanol to obtain a stock solution with a concentration of 2 mg/mL. Then, the solution was divided into two equal parts. A 10% solution of HCl was added in 1:1 proportion to the first part, and a 10% solution of NaOH was added to the second part in the same 1:1 proportion. Then, the stability of the tested Se compounds, either in the acidic or in the basic conditions, was TLC-monitored at specific time periods: 10 min and 1, 2, 3, 24, and 48 h. The following eluents were used: (i) methylene chloride for EDA-26, EDA-73, EDA-74, EDA-93, EDA-109, EDA-119, EDA-120, and EDA-122; a mixture of n-hexane and ethyl acetate in a 4:1 ratio for EDA-58; (ii) chloroform for EDA-71 and EDA-A6; and (iii) acetone for EDA-117.
In the next step of the experiments, the chemical stability of 11 selenoesters (EDA-26, EDA-71, EDA-73, EDA-74, EDA-58, EDA-93, EDA-109, EDA-117, EDA-119, EDA-120 and EDA-122) and the selenoanhydride EDA-A6 in acidic and alkaline environments was evaluated by the use of a previously described method. Unfortunately, it was not possible to estimate the chemical stability of the compounds EDA-46, EDA-53, EDA-56, and […] due to their physicochemical properties: they were liquid at room temperature in the form of an oil, which is not miscible with water.

[2] = test system: Salmonella Typhimurium TA100 strain; conditions: for Fold Increase over Baseline / MI (mutagenic index) / B (binomial B value) / cytotoxic effect label beside B value: TA100; for Fold Increase over Baseline: alert ≥ 2.0; for MI (mutagenic index): mutagenic if MI ≥ 2; for B (binomial B value): threshold ≥ 0.99; for mutagenicity conclusion in Ames test: TA100, 1 and 10 µM
Description: Safety profiles were evaluated using an in vitro microbiological method adapted to the microplate Ames test (384-well microtitration plate), which applies Salmonella enterica serovar Typhimurium bacterial strains (the gold standard in mutagenicity research). The experiment was performed according to a previously described protocol, which is provided in the Supplementary Materials. Briefly, the TA 100 strain (deprived of the ability to synthesize the histidine) was incubated with each tested compound in an exposure medium containing a limited amount of histidine. The reversion events were counted both manually and by means of a microplate reader. Each fold increase bigger than two times the baseline level (≥2.0-fold) was considered to indicate a mutagen alert. The experiments and data analyses were prepared according to the procedure that was previously described by Flückiger-Isler et al.. The assay was performed in triplicate. The positive control selected for the mutagenicity assays was NQNO, which causes genome point mutations; specifically, it promotes G:C → A:T transitions in the Salmonella Typhimurium TA-100 strain and other bacteria such as Vibrio harveyi and Escherichia coli.
In the next step of the studies, the in vitro safety profiles of the tested selenocompounds were evaluated. All compounds were tested with the 384-well plate microfluctuation Ames test. The mutagenic index (MI) was used as the measure of mutagenicity.
1.5. Safety profile evaluation - Ames microplate mutagenicity assay
Safety profile was evaluated by the means of in vitro microbiological methods – adapted to microplate Ames test, which applies Salmonella enterica serovar Typhimurium bacterial strains (the gold standard in mutagenicity research).
1.5.1. Compounds preparation
To evaluate the impact of tested compounds and of references on Salmonella enterica serovar Typhimurium (onwards Salmonella Typhimurium) TA-100 strain growth by means of the Ames test, the compounds or the reference were dissolved in the pure DMSO, to obtain the corresponding 10 mM stock solutions. Working solutions for tested compounds (25 μM and 250 μM concentrations) were prepared before the assay in DMSO.
1.5.2. Microplate Ames mutagenicity assay protocol
Prior to the experiment, Salmonella Typhimurium was cultured overnight (NB-2 liq-uid medium in the presence of 25 μg/mL ampicillin). At the day of the experiment, fresh dilutions of the tested compounds (25 μM and 250 μM), reference compound (methylse-leninic acid) and standard mutagen (4-nitroquinoline-N-oxide at 2.5 μM and 12.5 μM) in DMSO were prepared. The positive control selected for the mutagenicity assays was NQNO, which causes point mutations at the genome. Specifically, it promotes G:C → A:T transitions in Salmonella Typhimurium TA-100 strain and in the other bacteria such as Vib-rio harveyi and Escherichia coli.
The mutagenic potential of the tested derivatives was evaluated by the incubation of the abovementioned bacteria (deprived of the ability to synthesize the histidine) with spe-cific concentrations of the tested compounds (for 90 min in the exposure medium), con-taining a limited amount of histidine (enough to provide approximately 2-3 cell divisions).
The occurrence of reversion events to histidine prototrophy was observed through the bacterial growth in the indicator medium without histidine after 48 h of incubation in temperature of 37° C [45]. The final compound and the mutagenic agent concentrations in each single well of a 384 well plate were 1 μM and 10 μM for the compounds; and 0.1 μM and 0.5 μM for the mutagen. Lastly, both a manual count and a microplate reader were used to obtain the results. The medium control baseline (MCB) was estimated as the mean number of revertants in the medium control plus one standard deviation. Each fold in-crease bigger than two times the baseline level ≥ 2.0 was considered as a mutagen alert.

## COC(=O)C[Se]C(=O)c1cc(OC)c(OC)c(OC)c1 [EDA-26, methyl 2-((3,4,5-trimethoxybenzoyl)selanyl)acetate]
[1]
  chemical stability in the acidic environment: stable till the end of the analysis (48 h)
  chemical stability in the alkaline environment: totally unstable
[2]; 1 µM
  Fold Increase over Baseline: 0.96
  MI (mutagenic index): 1.51
  B (binomial B value): 0.92
[2]; 10 µM
  Fold Increase over Baseline: 1.37
[2]
  mutagenicity conclusion in Ames test: may have had mutagenic potential

## COC(=O)C[Se]C(=O)c1cc(OC)cc(OC)c1 [EDA-58, methyl 2-((3,5-dimethoxybenzoyl)selanyl)acetate]
[2]; 1 µM
  Fold Increase over Baseline: 0.67
  MI (mutagenic index): 0.57
  B (binomial B value): 0.80
[2]; 10 µM
  Fold Increase over Baseline: 1.78
  MI (mutagenic index): 1.51
  B (binomial B value): 1.00

## CC(=O)C[Se]C(=O)c1ccc(Cl)cc1 [EDA-71, Se-(2-oxopropyl) 4-chlorobenzoselenoate]
[1]
  chemical stability in the acidic environment: totally unstable
  chemical stability in the alkaline environment: unstable
[2]; 1 µM
  Fold Increase over Baseline: 0.60
  MI (mutagenic index): 0.54
  B (binomial B value): 0.34
[2]; 10 µM
  Fold Increase over Baseline: 0.89
  MI (mutagenic index): 0.79
  B (binomial B value): 0.98

## CC(C)(C)C(=O)C[Se]C(=O)c1ccc(Cl)cc1 [EDA-73, Se-(3,3-dimethyl-2-oxobutyl) 4-chlorobenzoselenoate]
[1]
  chemical stability in the acidic environment: stable till the end of the experiment (48 h)
  chemical stability in the alkaline environment: unstable
[2]; 1 µM
  Fold Increase over Baseline: 0.84
  MI (mutagenic index): 1.28
  B (binomial B value): 0.72
[2]; 10 µM
  Fold Increase over Baseline: 0.52
  MI (mutagenic index): 0.79
  B (binomial B value): 0.04

## COc1cc(OC)cc(C(=O)[Se]CC(=O)C(C)(C)C)c1 [EDA-74, Se-(3,3-dimethyl-2-oxobutyl) 3,5-dimethoxybenzoselenoate]
[1]
  chemical stability in the acidic environment: stable till the end of the experiment (48 h)
  chemical stability in the alkaline environment: unstable
[2]; 1 µM
  Fold Increase over Baseline: 0.98
  MI (mutagenic index): 0.88
  B (binomial B value): 0.94
[2]; 10 µM
  Fold Increase over Baseline: 0.76
  MI (mutagenic index): 0.69
  B (binomial B value): 0.68

## O=C(C[Se]C(=O)c1ccccc1)Oc1ccccc1 [EDA-93, phenyl 2-(benzoylselanyl)acetate]
[1]
  chemical stability in the acidic environment: unstable
  chemical stability in the alkaline environment: unstable
[2]; 1 µM
  Fold Increase over Baseline: 1.02
  MI (mutagenic index): 1.27
  B (binomial B value): 0.96
[2]; 10 µM
  Fold Increase over Baseline: 0.87
  MI (mutagenic index): 1.08
  B (binomial B value): 0.80

## C[Se]C(=O)c1ccc(C(=O)[Se]C)cc1 [EDA-109, Se,Se-dimethyl benzene-1,4-bis(carboselenoate)]
[1]
  chemical stability in the acidic environment: stable till the end of the analysis (48 h)
  chemical stability in the alkaline environment: totally unstable
[2]; 1 µM
  Fold Increase over Baseline: 0.55
  MI (mutagenic index): 0.96
  B (binomial B value): 0.07
[2]; 10 µM
  cytotoxicity for Salmonella Typhimurium in Ames test: cytotoxic activity was observed
  cytotoxic effect label beside B value: C (data points that are significantly smaller (B ≤ 0.01 (bolded)) than the mean number of spontaneous revertants are labelled C for “cytotoxic effect”)
  Fold Increase over Baseline: 0.39
  MI (mutagenic index): 0.67

## C[Se]C(=O)c1cccc(C(=O)[Se]C)n1 [EDA-119, Se,Se-dimethyl pyridine-2,6-bis(carboselenoate)]
[2]; 1 µM
  Fold Increase over Baseline: 0.54
  MI (mutagenic index): 0.56
  B (binomial B value): 0.24
[2]; 10 µM
  Fold Increase over Baseline: 0.92
  MI (mutagenic index): 0.96
  B (binomial B value): 0.90

## C[Se]C(=O)c1cccc(C(=O)[Se]C)c1 [EDA-120, Se,Se-dimethyl benzene-1,3-bis(carboselenoate)]
[1]
  chemical stability in the acidic environment: stable till the end of the analysis (48 h)
  chemical stability in the alkaline environment: totally unstable
[2]; 1 µM
  MI (mutagenic index): 1.24
  B (binomial B value): 1.00
[2]; 10 µM
  MI (mutagenic index): 1.46
  B (binomial B value): 1.00
[2]
  mutagenicity conclusion in Ames test: non-mutagenic

## C[Se]C(=O)c1ccc(C(=O)[Se]C)s1 [EDA-122, Se,Se-dimethyl thiophene-2,5-bis(carboselenoate)]
[2]; 1 µM
  Fold Increase over Baseline: 0.63
  MI (mutagenic index): 0.84
  B (binomial B value): 0.14
[2]; 10 µM
  Fold Increase over Baseline: 1.08
  MI (mutagenic index): 1.46
  B (binomial B value): 0.94

## O=C1[Se]C(=O)c2ccccc21 [EDA-A6, benzo[c]selenophene-1,3-dione]
[1]
  chemical stability in the alkaline environment: unstable
[2]; 1 µM
  Fold Increase over Baseline: 1.08
  MI (mutagenic index): 1.23
  B (binomial B value): 0.94
[2]; 10 µM
  cytotoxicity for Salmonella Typhimurium in Ames test: could have been cytotoxic
  cytotoxic effect label beside B value: C (data points that are significantly smaller (B ≤ 0.01 (bolded)) than the mean number of spontaneous revertants are labelled C for “cytotoxic effect”)
  Fold Increase over Baseline: 0.33
  MI (mutagenic index): 0.38
  B (binomial B value): 0.001

From article PMC8875489, “Pharmaceutical and Safety Profile Evaluation of Novel Selenocompounds with Noteworthy Anticancer Activity” (Pharmaceutics, 2022)
